This experiment relates to M. tuberculosis H37Rv growth inhibition, 7H9 media. In words: M. tuberculosis growth inhibition, HTS (AID 449762).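 On all read-outs here: bacterial growth assessed after seven days of incubation.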 To be noted: for IC90: measured here: IC90 growth inhibition.

This is an account of results in PubChem BioAssay AID449762 (Southern Research Specialized Biocontainment Screening …, 2010).

pIC50: −log10 of the molar value. Records with an inconclusive call do not appear.

On to `Cc1ccc(C(=O)N/C(=C/c2ccco2)C(=O)OCN2C(=O)c3ccccc3C2=O)cc1`, for which the pIC50 is 5.17 and the IC90 came to 49.9 µM.

In the case of `CCCCN(C)C(=O)Cc1c(OC)ccc2cc(Br)ccc12`, the pIC50 is 4.71 and the IC90 came out at 29.2 µM.

As to `Nc1n[nH]c(C2CC2)c1N=Nc1ccc(Cl)cc1`, the pIC50 was 4.71 and the IC90 was 41 µM.

Turning to `O=c1oc2ccccc2c(Nc2ccccc2O)c1[N+](=O)[O-]`, the pIC50 is 5.15 and the IC90 was determined as 14 µM.

As to `CC(C)(C)C(=O)/C(=C\c1cccc([N+](=O)[O-])c1)n1cncn1`, the negative logarithm of the IC50 (pIC50) was 5.82 and the IC90 worked out at 1.72 µM.

Turning to `Cc1cc(=O)oc2cc(Oc3ccc([N+](=O)[O-])cc3C(F)(F)F)ccc12`, the pIC50 was 4.16 and the IC90 was more than 100 µM.

Regarding `CCCNc1nc(-c2cc(C(=O)Nc3ccccc3)on2)cc(C(C)C)n1`, the negative logarithm of the IC50 (pIC50) is 4.46 and the IC90 came out at 59.3 µM.

Take `Cc1ccc(-c2csc3ncnc(Nc4ccc(N5CCOCC5)cc4)c23)cc1`: the pIC50 was 4.73 and the concentration for an effect of 90% (IC90) stood at 50.1 µM.

Regarding `O=C1C2(Cl)C3(Cl)C4(Cl)C(Cl)(Cl)C5(Cl)C3(Cl)C1(Cl)C5(Cl)C24Cl` (centres undefined), the pIC50 was 4.33 and the IC90 came to 53 µM.

On to `ClCc1nc2ccccc2c2ccccc12`, for which the pIC50 was 5.20 and the 90% effect concentration (IC90) came out at 17.2 µM.

Turning to `CCCn1c(N2CCN(Cc3ccc(Cl)cc3)CC2)nc2ccccc21`, the pIC50 is 4.95 and the IC90 stood at 23.5 µM.

Consider `CC(=O)c1sc(NC(=O)c2cc(=O)c3ccccc3o2)nc1C`, for which the pIC50 was 4.84 and the IC90 was more than 100 µM.

Take `Cc1cc(NC(=O)c2cc(-c3ccncc3)nc3c(C)cccc23)no1`: the pIC50 is 4.33 and the IC90 was more than 100 µM.

Take `COC(=O)N/N=C/c1c[n+]([O-])c2ccccc2[n+]1[O-]`: the pIC50 is 4.88 and the concentration for an effect of 90% (IC90) was 31.7 µM.

In the case of `NC(=O)N=Nc1c2[nH]c3ccccc3nc-2c2ccccc12`, the pIC50 was 5.36 and the IC90 is 7.08 µM.

Consider `CC1CN(c2ccc([N+](=O)[O-])c(NCCOc3ccc(Cl)cc3)c2)CC(C)N1` (centres undefined), for which the pIC50 was 5.04 and the 90% effect concentration (IC90) was 12.8 µM.

On to `O=C(CSc1nnnn1C1CCCCC1)Nc1nc2c(s1)CCCC2`, for which the negative-log IC50 (pIC50) is 4.51 and the IC90 came to 59.3 µM.

`C/C(CC(=O)Nc1ccc(C)c(Cl)c1)=N\NC(=O)Cc1cnc(N)s1` showed an IC90 of more than 100 µM.

With `Nc1cc([N+](=O)[O-])cc2oc(-c3ccccc3)cc12`, the pIC50 was 4.01 and the IC90 is more than 100 µM.

Consider `Cc1cc2oc3ccc(NCCCn4ccnc4)cc3c(=O)c2cc1C`, for which the pIC50 is 4.74 and the IC90 was 27.5 µM.

As to `CC1(C)Cc2c(cnn2-c2ccccc2)-c2c1c1ccccc1n2CC(O)CCl` (centres undefined), the pIC50 was 4.05 and the concentration for an effect of 90% (IC90) is more than 100 µM.

In the case of `Cc1cc(C)c2oc(-c3ccc(C)c(NC(=S)NC(=O)/C=C/c4ccco4)c3)nc2c1`, the pIC50 is 4.22 and the IC90 was more than 100 µM.

In the case of `CC1CC2=C(CC1/C=N/NC(N)=S)C(C)(C)CCC2` (centres undefined), the pIC50 is 4.84 and the IC90 amounted to 24.6 µM.

As for `CN1CC=C(/C=C/c2ccc(-c3ccccc3)cc2)CC1`, the pIC50 is 4.70 and the IC90 came to 26.9 µM.

In the case of `O=C1c2ccccc2CC1Sc1nnc(-c2ccncc2)o1` (centres undefined), the pIC50 was 4.69 and the IC90 amounted to 30 µM.

Take `CCOC(=O)CN(C#N)c1nc(N(C)C)nc(N(C)C)n1`: the pIC50 was 4.95 and the IC90 was 12.5 µM.

In the case of `CCCCCC(=O)NNC(=S)NC(=O)c1ccc([N+](=O)[O-])cc1`, the pIC50 is 5.87 and the IC90 worked out at 4.43 µM.

For `Cc1cnc(NC(=O)NCC2CCCC(CNC(=O)Nc3ncc(C)s3)C2)s1` (centres undefined), the negative logarithm of the IC50 (pIC50) is 4.61 and the IC90 was 28.2 µM.

With `Cc1ccc(C(=O)C2CCN(CC(=O)Nc3nc(C)cs3)CC2)cc1`, the pIC50 is 4.87 and the IC90 came out at 25.2 µM.

With `O=c1/c(=C\c2ccc(O)cc2)sc2n1C(c1ccccc1)C(c1ccccc1)=NN=2` (centres undefined), the pIC50 is 4.25 and the concentration for an effect of 90% (IC90) turned out to be 87.2 µM.

Consider `CCCN(CC1CC1)C(=O)COC(=O)c1ccc2c(c1)C(=O)N(c1ccc(OCC)cc1)C2=O`, for which the pIC50 was 4.45 and the IC90 is more than 100 µM.

Take `NC(=S)N=Nc1ccc(NN=C(N)N)cc1`: the pIC50 is 4.77 and the IC90 is 24.7 µM.

In the case of `O=C1CC(/C=C/c2ccc(Cl)cc2)=Nc2ccccc2N1`, the pIC50 is 4.92 and the IC90 is 14.1 µM.

Take `Cc1ccc(C(=O)c2cc(C)sc2NC(=O)CN2CCN(C(=O)c3ccco3)CC2)cc1`: the pIC50 was 5.42 and the IC90 stood at 12 µM.

Regarding `CN=c1scc(-c2ccccc2Br)n1/N=C/c1ccc[nH]1`, the pIC50 was 4.30 and the IC90 is 54.2 µM.

`O=C(OCC(=O)N1CCCc2ccccc21)c1ccc(S(=O)(=O)C(F)F)cc1`: the pIC50 is 4.62 and the IC90 came out at 38 µM.

On to `CCSc1ccc2c(c1)N(CCCN1CCN(C)CC1)c1ccccc1S2`, for which the pIC50 was 4.72 and the IC90 is 26.5 µM.

In the case of `CC(C)(C)C1CCc2c(sc3nc(SCC(N)=O)nc(N)c23)C1` (centres undefined), the pIC50 was 4.81 and the IC90 turned out to be 31.8 µM.

With `O=c1c2cc(-c3ccccc3)sc2ncn1/N=C/c1ccco1`, the pIC50 is 4.08 and the IC90 is more than 100 µM.

As to `CCOc1ccccc1NC(=O)C12CC3CC(C1)CC(c1ccc(C)cc1)(C3)C2`, the pIC50 is 4.52 and the IC90 is more than 100 µM.

`CCc1nc2ccccc2c(C(=O)Nc2cc(C)ccc2C)c1C`: the negative logarithm of the IC50 (pIC50) is 4.88 and the IC90 was more than 100 µM.

Regarding `CCSc1ncc(/C=N/Nc2ccccc2)n1C`, the pIC50 is 4.05 and the IC90 is more than 100 µM.

Consider `O=c1c2cc(Br)cc(Br)c2oc2nc3n(c(=O)c12)CCCS3`, for which the pIC50 is 5.23 and the IC90 stood at 13.1 µM.

In the case of `CN(C)c1ccc(-c2cc(O)c3ncccc3c2)cc1`, the pIC50 is 5.59 and the IC90 was 4.17 µM.

As to `Cc1ccc(S(=O)(=O)CNC(=S)c2ccc3ccccc3c2)cc1`, the 90% effect concentration (IC90) was more than 100 µM.

Consider `CC1Cc2cc(-c3csc(NC(=O)Cc4cccs4)n3)ccc2N1S(C)(=O)=O` (centres undefined), for which the pIC50 was 4.98 and the IC90 was found to be 38 µM.

As to `Cc1nc(Nc2ccc(Cl)c(Cl)c2)sc1C(=O)Nc1ccccc1`, the pIC50 was 4.72 and the IC90 is more than 100 µM.

As for `O=[N+]([O-])c1cc(-c2ncccn2)c([N+](=O)[O-])s1`, the pIC50 was 4.89 and the IC90 was found to be 32.5 µM.

For the compound `CN(C(=O)COC(=O)c1ccc([N+](=O)[O-])cc1Cl)C1CCCCC1`, the pIC50 is 4.89 and the IC90 was 65.6 µM.

Regarding `CC(C)(C)c1ccc(C(O)CCCN2CCC(C(O)(c3ccccc3)c3ccccc3)CC2)cc1` (centres undefined), the pIC50 was 4.91 and the IC90 turned out to be 17.4 µM.

Take `O=[N+]([O-])c1c(C(Cl)Cl)nn(-c2ccc(Cl)cc2)c1N1CCCCC1`: the pIC50 is 4.81 and the concentration for an effect of 90% (IC90) turned out to be 19.4 µM.

Turning to `Cc1cc(Cl)ccc1OCCCC(=O)NO`, the pIC50 is 4.75 and the IC90 was more than 100 µM.

On to `Cc1cccc(C)c1OCCCCc1c(C)n[nH]c1C`, for which the pIC50 was 4.96 and the concentration for an effect of 90% (IC90) is 26.4 µM.

As for `CCn1c(SCC(=O)Nc2ccc3c(c2)oc2ccccc23)nnc1-c1ccc(N)cc1`, the IC90 was more than 100 µM.

For `COc1ccc(C2c3[nH]c4ccccc4c3CCN2Cc2cccn2-c2ncccn2)cc1C` (centres undefined), the pIC50 was 4.60 and the IC90 worked out at 28.9 µM.

In the case of `CCc1cccc2c(C(=O)CCl)c[nH]c12`, the pIC50 is 6.11 and the IC90 came out at 3.18 µM.

In the case of `CCNC(=S)NN=C1c2ccccc2-c2ccccc21`, the pIC50 was 4.95 and the IC90 was determined as 12.7 µM.

For the compound `CCOC(=O)CSc1ccc(C(=O)Nc2ccc(OC)cc2)cn1`, the pIC50 was more than 6.70 and the IC90 was more than 100 µM.

The compound `COc1ccc(N=N/C(=C\O)C(=O)c2cccs2)cc1` showed an IC90 of more than 100 µM.

In the case of `CSCCOC(=O)COc1ccc(/C=N/NC(=O)c2c(Cl)cnn2C)cc1`, the pIC50 was 5.04 and the IC90 was 22.6 µM.

With `Cc1ccc(C(=O)Sc2cccccc2=O)cc1`, the pIC50 was 6.02 and the IC90 turned out to be 2.48 µM.

For the compound `Cc1cc2c(N=O)c(NO)ccc2[nH]1`, the pIC50 was 4.99 and the IC90 is 15 µM.

As for `CCCCOc1ccc(C(=O)Oc2ccc(C)nc2)cc1`, the pIC50 is 4.86 and the IC90 turned out to be 72.3 µM.

As for `Cc1ccc(Cn2nnnc2CN2CCC(c3nc4ccc(Cl)cc4[nH]3)CC2)cc1`, the pIC50 was 4.58 and the IC90 stood at 35.9 µM.

Regarding `CCN(CC)C(=O)[C@H]1CC(CC(=O)NCC23CC4CC(CC(C4)C2)C3)C(=O)N2CCc3c([nH]c4ccccc34)[C@]12C` (some centres undefined), the pIC50 is 4.74 and the IC90 was found to be 24.8 µM.

`COc1cccc(C(=O)NC2CC3CCCC(C2)N3CC(=O)Nc2ccc(N(C)C)cc2)c1` (centres undefined): the pIC50 was 4.71 and the IC90 was determined as 24.8 µM.

Regarding `COc1ccc(Nc2nc(N)c([N+](=O)[O-])c(NC3CCCCC3)n2)cc1`, the pIC50 is 5.01 and the IC90 was 18.8 µM.

`O=C(c1cc2ccccc2o1)N1CCN(S(=O)(=O)c2ccc(Cl)s2)CC1`: the pIC50 is 5.40 and the IC90 is 13.1 µM.

With `Cc1nc(N)nc(N)c1CCCc1ccc(Cl)c(Cl)c1`, the pIC50 was 4.11 and the IC90 was more than 100 µM.

Regarding `CON(C)c1nc(C2CCCCC2)c2cc(C)ccc2n1`, the pIC50 was 4.22 and the IC90 is 75.5 µM.

For the compound `NCCCn1c(C(=O)c2ccc(Cl)cc2)c2ccc([N+](=O)[O-])cc2[n+]1[O-]`, the pIC50 was 4.62 and the IC90 was 32.3 µM.

On to `CCOC(=O)c1cnc(SC2CCc3ccccc3C2=O)nc1N` (centres undefined), for which the pIC50 was 4.15 and the IC90 was determined as 88.7 µM.

As for `CCOC(=O)c1[nH]c(CN2CCN(c3ccc(OC)cc3)CC2)c(C(=O)OCC)c1C`, the negative logarithm of the IC50 (pIC50) was 4.64 and the IC90 is 26 µM.

On to `CSC1=NC(C)(C)C=C(/C=C/c2ccc(Cl)cc2)N1`, for which the pIC50 is 4.67 and the IC90 was determined as 44.5 µM.
